ChEMBL document CHEMBL3856231 (J Med Chem, 2016)

How the values were obtained:
[1] = Dose normalized AUC in CD-1 mouse at 10 mg/kg, po by LC/MS/MS analysis; format: ADME, organism-based; conditions: in vivo
[2] = (§1) Drug metabolism in rat liver microsomes assessed as (1S,5R,6S,7R)-7-[5-Chloro-2-((S)-1-methoxy-7-morpholin-4-yl-6,7,8,9-tetrahydro-5H-benzocyclohepten-2-ylamino)-pyrimidin-4-ylamino]-3-oxa-tricyclo[3.2.1.0(2,4)]octane-6-carboxylic acid amide formation at 10 uM after 120 mins in presence of NADPH by LC/MS/MS analysis; format: ADME; conditions: 2 h
[3] = target: Voltage-gated inwardly rectifying potassium channel KCNH2 (Homo sapiens, UniProt Q12809); test: Inhibition of human ERG
[4] = target: ALK tyrosine kinase receptor (Homo sapiens, UniProt Q9UM73); test: Inhibition of NPM-ALK phosphorylation in human SUP-M2 cells after 2 to 3 hrs by ELISA; format: cell-based
[5] = Dose normalized AUC in cynomolgus monkey at 10 mg/kg, po by LC/MS/MS analysis; format: ADME, organism-based, Macaca fascicularis; conditions: in vivo
[6] = Half life in rat liver microsomes by LC/MS/MS analysis; format: ADME
[7] = Drug metabolism in rat liver microsomes assessed as oxidative/degradative M6 metabolite formation at 10 uM after 120 mins in presence of NADPH by LC/MS/MS analysis; format: ADME; conditions: 2 h
[8] = Drug metabolism in rat liver microsomes assessed as oxidative/degradative M1 metabolite formation at 10 uM after 120 mins in presence of NADPH by LC/MS/MS analysis; format: ADME; conditions: 2 h
[9] = Drug metabolism in human liver microsomes assessed as oxidative/degradative M1 metabolite formation at 10 uM after 120 mins in presence of NADPH by LC/MS/MS analysis; format: ADME; conditions: 2 h
Cytochrome P450 1A2 = target: T1, Cytochrome P450 1A2 (Homo sapiens, UniProt P05177); test: Inhibition of CYP1A2 in human liver microsomes using phenacetin as substrate in presence of NADPH by LC/MS/MS analysis; format: ADME
T1 sequence (P05177 whole entry): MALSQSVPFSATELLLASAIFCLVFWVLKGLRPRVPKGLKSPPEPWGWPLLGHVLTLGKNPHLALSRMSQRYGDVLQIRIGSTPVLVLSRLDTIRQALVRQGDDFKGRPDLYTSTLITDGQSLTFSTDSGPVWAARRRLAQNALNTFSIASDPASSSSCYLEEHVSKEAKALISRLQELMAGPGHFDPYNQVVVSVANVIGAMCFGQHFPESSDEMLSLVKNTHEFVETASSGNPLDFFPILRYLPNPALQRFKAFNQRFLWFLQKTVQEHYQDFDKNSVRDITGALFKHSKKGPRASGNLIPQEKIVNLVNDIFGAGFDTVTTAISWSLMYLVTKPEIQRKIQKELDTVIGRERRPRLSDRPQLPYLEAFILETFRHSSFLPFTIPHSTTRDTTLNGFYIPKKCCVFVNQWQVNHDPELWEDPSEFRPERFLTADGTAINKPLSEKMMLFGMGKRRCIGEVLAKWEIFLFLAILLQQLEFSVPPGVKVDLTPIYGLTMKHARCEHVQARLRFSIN

Cytochrome P450 2C19 = Cytochrome P450 2C19 (Homo sapiens, UniProt P33261); test: Inhibition of CYP2C19 in human liver microsomes using S-mephenytoin as substrate in presence of NADPH by LC/MS/MS analysis; format: ADME
Focal adhesion kinase 1 = Focal adhesion kinase 1 (Homo sapiens, UniProt Q05397); test: Inhibition of human FAK expressed in baculovirus after 30 mins using biotinyl-amino-hexanoyl-EQEDEPEGDYFEWLE-amide as substrate by TRF assay
[10] = Drug metabolism in human liver microsomes assessed as oxidative/degradative M6 metabolite formation at 10 uM after 120 mins in presence of NADPH by LC/MS/MS analysis; format: ADME; conditions: 2 h
[11] = AUC (0 to infinity) in Sprague-Dawley rat at 5 mg/kg, po by LC/MS/MS analysis; format: ADME, organism-based; design: dose 5 mg/kg, time infinity, route oral; conditions: in vivo
[12] = Half life in cynomolgus monkey liver microsomes by LC/MS/MS analysis; format: ADME, Macaca fascicularis
[13] = Drug metabolism in rat liver microsomes assessed as oxidative/degradative M5 metabolite formation at 10 uM after 120 mins in presence of NADPH by LC/MS/MS analysis; format: ADME; conditions: 2 h
[14] = Half life in CD-1 mouse liver microsomes by LC/MS/MS analysis; format: ADME
[15] = Dose normalized AUC in Sprague-Dawley rat at 5 mg/kg, po by LC/MS/MS analysis; format: ADME, organism-based; conditions: in vivo
[16] = Drug metabolism in human liver microsomes assessed as oxidative/degradative M2 metabolite formation at 10 uM after 120 mins in presence of NADPH by LC/MS/MS analysis; format: ADME; conditions: 2 h
[17] = Drug metabolism in human liver microsomes assessed as oxidative/degradative M5 metabolite formation at 10 uM after 120 mins in presence of NADPH by LC/MS/MS analysis; format: ADME; conditions: 2 h
Insulin receptor [18] = target: T2, Insulin receptor (Homo sapiens, UniProt P06213)
Description: Inhibition of recombinant human INSR expressed in baculovirus using ATP as substrate after 15 mins by TRF assay

Cytochrome P450 2C9 = Cytochrome P450 2C9 (Homo sapiens, UniProt P11712); test: Inhibition of CYP2C9 in human liver microsomes using diclofenac as substrate in presence of NADPH by LC/MS/MS analysis; format: ADME
[19] = Drug metabolism in rat liver microsomes assessed as oxidative/degradative M2 metabolite formation at 10 uM after 120 mins in presence of NADPH by LC/MS/MS analysis; format: ADME; conditions: 2 h
Insulin receptor [20] = target: T2, Insulin receptor; remark: listed apart in the source
Description: Inhibition of INSR (unknown origin) by cell based assay

Cytochrome P450 2D6 = Cytochrome P450 2D6 (Homo sapiens, UniProt P10635); test: Inhibition of CYP2D6 in human liver microsomes using dextromethorphan as substrate in presence of NADPH by LC/MS/MS analysis; format: ADME
[21] = Half life in human liver microsomes by LC/MS/MS analysis; format: ADME
[22] = as §1, with “human” for “rat”; format: ADME; conditions: 2 h

T2 sequence (P06213 28-758 limits assumed): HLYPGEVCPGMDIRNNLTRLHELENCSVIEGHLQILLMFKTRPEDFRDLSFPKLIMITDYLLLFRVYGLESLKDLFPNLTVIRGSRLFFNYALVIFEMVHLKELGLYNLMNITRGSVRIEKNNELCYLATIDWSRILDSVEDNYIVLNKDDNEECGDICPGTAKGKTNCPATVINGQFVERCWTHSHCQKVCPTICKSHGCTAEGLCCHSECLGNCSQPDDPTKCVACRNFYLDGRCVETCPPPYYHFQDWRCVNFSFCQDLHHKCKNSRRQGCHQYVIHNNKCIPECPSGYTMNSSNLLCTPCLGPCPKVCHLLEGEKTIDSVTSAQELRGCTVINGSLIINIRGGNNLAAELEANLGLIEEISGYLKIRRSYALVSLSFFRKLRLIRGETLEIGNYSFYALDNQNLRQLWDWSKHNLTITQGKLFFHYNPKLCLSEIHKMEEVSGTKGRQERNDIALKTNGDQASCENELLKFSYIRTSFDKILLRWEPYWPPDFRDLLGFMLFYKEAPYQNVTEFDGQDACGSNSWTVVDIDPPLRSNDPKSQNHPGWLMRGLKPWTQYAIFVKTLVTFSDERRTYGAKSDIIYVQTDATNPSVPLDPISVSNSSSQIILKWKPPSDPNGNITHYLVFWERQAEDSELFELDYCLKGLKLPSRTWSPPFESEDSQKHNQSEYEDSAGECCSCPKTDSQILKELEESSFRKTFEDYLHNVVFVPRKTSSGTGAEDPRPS
T2 sequence (P06213 763-1382 limits assumed): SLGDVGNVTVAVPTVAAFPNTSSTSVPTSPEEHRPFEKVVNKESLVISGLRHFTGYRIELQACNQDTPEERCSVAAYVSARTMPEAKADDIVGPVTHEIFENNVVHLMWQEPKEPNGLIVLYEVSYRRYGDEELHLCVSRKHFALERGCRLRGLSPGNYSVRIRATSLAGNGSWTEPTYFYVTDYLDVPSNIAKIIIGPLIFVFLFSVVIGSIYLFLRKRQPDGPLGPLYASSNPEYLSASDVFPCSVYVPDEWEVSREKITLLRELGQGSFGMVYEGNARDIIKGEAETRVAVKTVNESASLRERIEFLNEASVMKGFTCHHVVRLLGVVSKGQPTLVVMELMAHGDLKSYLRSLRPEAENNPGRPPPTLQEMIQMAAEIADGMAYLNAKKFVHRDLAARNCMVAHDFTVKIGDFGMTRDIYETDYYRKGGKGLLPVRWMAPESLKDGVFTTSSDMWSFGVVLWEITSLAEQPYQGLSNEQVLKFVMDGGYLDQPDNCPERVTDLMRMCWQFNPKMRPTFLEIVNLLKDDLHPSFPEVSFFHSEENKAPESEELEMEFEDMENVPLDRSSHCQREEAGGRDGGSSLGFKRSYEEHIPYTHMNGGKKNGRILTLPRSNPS
Voltage-gated inwardly rectifying potassium channel KCNH2, sequence (Q12809 whole entry): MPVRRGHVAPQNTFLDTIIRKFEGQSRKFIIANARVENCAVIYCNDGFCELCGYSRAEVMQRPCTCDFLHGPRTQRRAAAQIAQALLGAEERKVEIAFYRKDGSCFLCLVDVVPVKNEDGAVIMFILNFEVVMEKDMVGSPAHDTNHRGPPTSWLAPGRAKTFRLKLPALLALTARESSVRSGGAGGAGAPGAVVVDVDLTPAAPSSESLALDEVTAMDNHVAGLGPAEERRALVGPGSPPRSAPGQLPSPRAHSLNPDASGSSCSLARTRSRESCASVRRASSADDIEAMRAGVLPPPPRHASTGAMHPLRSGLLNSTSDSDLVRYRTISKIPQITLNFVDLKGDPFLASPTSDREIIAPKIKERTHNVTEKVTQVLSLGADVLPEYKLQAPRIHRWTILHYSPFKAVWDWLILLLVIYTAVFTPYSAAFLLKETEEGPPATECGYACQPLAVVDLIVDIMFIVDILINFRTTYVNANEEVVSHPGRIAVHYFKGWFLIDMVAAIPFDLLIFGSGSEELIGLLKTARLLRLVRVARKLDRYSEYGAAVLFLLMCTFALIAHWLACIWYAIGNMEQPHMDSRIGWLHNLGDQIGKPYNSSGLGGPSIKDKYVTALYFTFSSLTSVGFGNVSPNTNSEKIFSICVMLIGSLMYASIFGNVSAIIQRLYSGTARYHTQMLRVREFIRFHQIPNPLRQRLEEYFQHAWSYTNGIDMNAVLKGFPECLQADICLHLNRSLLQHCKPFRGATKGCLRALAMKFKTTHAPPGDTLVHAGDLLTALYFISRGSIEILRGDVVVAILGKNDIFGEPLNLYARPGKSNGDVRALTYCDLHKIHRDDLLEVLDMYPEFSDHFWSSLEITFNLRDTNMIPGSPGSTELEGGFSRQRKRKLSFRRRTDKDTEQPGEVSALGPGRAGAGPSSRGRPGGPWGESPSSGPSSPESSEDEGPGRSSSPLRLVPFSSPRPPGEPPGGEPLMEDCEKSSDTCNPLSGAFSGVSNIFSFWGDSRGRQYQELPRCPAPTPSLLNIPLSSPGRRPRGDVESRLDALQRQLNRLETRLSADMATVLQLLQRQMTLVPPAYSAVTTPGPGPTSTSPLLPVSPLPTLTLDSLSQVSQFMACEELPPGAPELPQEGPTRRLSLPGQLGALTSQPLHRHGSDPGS
Cytochrome P450 2D6, sequence (P10635 whole entry): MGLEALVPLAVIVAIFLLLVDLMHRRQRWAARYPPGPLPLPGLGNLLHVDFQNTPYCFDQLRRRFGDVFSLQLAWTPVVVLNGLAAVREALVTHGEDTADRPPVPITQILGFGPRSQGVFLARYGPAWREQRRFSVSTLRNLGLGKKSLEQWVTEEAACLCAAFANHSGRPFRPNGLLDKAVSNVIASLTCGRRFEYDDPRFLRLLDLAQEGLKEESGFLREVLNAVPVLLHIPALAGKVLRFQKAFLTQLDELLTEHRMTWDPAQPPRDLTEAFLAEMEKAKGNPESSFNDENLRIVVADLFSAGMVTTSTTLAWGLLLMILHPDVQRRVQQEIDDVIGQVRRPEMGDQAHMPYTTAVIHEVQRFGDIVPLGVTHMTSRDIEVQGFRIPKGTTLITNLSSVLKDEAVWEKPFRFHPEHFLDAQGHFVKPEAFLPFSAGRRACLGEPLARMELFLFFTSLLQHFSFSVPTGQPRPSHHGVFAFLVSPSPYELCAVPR
ALK tyrosine kinase receptor, sequence (Q9UM73 19-1620 limits assumed): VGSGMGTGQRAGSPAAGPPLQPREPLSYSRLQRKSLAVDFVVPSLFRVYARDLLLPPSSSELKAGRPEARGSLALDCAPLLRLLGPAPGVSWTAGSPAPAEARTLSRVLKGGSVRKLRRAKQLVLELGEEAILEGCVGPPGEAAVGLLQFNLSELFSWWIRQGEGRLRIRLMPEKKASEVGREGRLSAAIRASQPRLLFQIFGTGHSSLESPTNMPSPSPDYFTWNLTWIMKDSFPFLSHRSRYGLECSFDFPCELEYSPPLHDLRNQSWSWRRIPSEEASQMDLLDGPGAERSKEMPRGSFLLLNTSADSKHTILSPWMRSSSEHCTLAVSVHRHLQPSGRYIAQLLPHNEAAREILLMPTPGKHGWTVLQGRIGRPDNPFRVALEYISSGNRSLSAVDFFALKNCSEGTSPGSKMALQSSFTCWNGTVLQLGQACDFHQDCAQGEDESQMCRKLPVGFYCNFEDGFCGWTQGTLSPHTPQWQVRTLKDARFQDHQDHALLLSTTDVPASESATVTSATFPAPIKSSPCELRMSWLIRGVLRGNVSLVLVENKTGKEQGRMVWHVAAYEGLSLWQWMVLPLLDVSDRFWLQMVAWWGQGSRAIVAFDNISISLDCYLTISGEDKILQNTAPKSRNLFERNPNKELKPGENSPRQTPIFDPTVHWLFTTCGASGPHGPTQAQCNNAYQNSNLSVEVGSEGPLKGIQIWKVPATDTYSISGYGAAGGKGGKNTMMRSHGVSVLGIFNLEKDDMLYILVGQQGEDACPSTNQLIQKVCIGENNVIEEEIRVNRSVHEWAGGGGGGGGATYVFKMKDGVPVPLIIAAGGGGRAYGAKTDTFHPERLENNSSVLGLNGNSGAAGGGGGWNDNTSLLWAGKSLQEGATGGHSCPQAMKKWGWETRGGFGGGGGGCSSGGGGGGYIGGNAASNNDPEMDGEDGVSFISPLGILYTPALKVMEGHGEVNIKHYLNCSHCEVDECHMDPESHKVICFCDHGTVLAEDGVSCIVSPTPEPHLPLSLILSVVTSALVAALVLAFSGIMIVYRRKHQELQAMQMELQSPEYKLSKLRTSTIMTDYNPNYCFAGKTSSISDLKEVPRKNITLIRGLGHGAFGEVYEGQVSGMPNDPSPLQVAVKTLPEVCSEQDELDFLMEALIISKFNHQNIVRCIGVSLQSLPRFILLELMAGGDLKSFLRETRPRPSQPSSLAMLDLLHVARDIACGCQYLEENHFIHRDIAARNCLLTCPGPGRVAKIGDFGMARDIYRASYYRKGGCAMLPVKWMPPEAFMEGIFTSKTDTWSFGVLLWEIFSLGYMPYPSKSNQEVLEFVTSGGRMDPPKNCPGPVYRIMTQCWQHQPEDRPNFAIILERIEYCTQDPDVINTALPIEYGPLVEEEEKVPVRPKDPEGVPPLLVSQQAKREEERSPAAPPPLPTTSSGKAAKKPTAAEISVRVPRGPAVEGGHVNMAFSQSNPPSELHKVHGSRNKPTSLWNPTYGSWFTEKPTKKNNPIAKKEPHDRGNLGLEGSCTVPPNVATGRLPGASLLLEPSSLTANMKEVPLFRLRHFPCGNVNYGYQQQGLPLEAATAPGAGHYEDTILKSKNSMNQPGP
Cytochrome P450 2C19, sequence (P33261 whole entry): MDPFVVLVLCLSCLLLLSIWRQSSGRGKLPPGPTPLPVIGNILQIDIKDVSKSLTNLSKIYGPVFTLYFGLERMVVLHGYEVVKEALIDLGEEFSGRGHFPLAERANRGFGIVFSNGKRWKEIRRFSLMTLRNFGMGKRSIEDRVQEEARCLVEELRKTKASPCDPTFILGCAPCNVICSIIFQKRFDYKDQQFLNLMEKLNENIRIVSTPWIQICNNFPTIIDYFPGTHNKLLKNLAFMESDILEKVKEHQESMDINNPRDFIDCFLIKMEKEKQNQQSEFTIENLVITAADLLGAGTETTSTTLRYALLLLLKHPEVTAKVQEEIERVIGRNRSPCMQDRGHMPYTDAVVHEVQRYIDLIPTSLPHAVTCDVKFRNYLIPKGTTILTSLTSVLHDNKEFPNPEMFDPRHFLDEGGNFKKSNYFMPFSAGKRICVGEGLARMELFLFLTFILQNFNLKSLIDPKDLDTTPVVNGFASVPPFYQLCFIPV

In the case of `COc1c(Nc2ncc(Cl)c(N[C@H]3[C@@H](C(N)=O)[C@@H]4C=C[C@H]3C4)n2)ccc2c1CC[C@@H](N1CCOCC1)CC2`, the AUC/dose [1] is reported as 299 ng·h/mL, the Drug metabolism [2] is reported as “Metabolite_Detected” and the IC50 [3] is reported as greater than 10 µM. It also gave an IC50 [4] of 0.02 to 0.042 µM, an AUC/dose [5] of 95 ng·h/mL and a half-life [6] of 7 to 16 min. For the same molecule, the Drug metabolism [7] was “Metabolite_Detected”, the Drug metabolism [8] was “Metabolite_Detected” and the Drug metabolism [9] was “Metabolite_Detected”. It also gave an IC50 (Cytochrome P450 1A2) greater than 10 µM, an IC50 (Cytochrome P450 2C19) greater than 10 µM and an IC50 (Focal adhesion kinase 1) of 0.025 to 0.03 µM. For the same molecule, the Drug metabolism [10] was “Metabolite_Detected”, the AUC(0-inf) [11] was 1200 ng·h/mL and the half-life [12] was 17 min. The Drug metabolism [13] was “Metabolite_Detected”, the half-life [14] was 8 to 13 min and the AUC/dose [15] was 246 ng·h/mL. The Drug metabolism [16] was “Metabolite_Detected”, the Drug metabolism [17] was “Metabolite_Detected” and the IC50 (Insulin receptor [18]) was 0.662 to 1.26 µM. For the same molecule, the IC50 (Cytochrome P450 2C9) was greater than 10 µM, the Drug metabolism [19] was “Metabolite_Detected” and the IC50 (Insulin receptor [20]) was greater than 10 µM. For the same molecule, the IC50 (Cytochrome P450 2D6) was greater than 10 µM, the half-life [21] was 10 to 11 min and the Drug metabolism [22] was “Metabolite_Detected”.
